Measured values published in PubChem BioAssay AID222 (DTP/NCI, 2004).
Several values for one entry are separate records, joined by “and”; a condition that tells them apart may be missing. Identical values can stand only once. Toxic doses and inconclusive results are not listed. Rule for the calls: active = survival T/C of 150% or more; inactive = T/C below 125% in these data.

Tested on: C57BL/6 mice, intracerebral ependymoblastoma, median survival T/C
Assay: NCI In Vivo Anticancer Drug Screen. Data for tumor model Ependymoblastoma (intracerebral) in C57BL/6 mice
Conditions: endpoint: median survival time, higher = longer survival
Experimental: The antitumor activity of compounds was measured in mice bearing transplantable tumors. Survival or tumor size were measured and the results are expressed as the measurement made in the treated group (T) divided by the measurement made in the vehicle treated control group (C). The tumor model used in this assay is Ependymoblastoma (intracerebral) in C57BL/6 mice

[1] = dose: 32.0 mg/kg/injection, schedule: Q01DX005 (ip), vehicle: saline with Tween-80
[2] = dose: 64.0 mg/kg/injection, schedule: Q01DX005 (ip), vehicle: saline with Tween-80
[3] = dose: 45.0 mg/kg/injection, schedule: Q01DX005 (ip), vehicle: saline with Tween-80
[4] = dose: 90.0 mg/kg/injection, schedule: Q01DX005 (ip), vehicle: saline with Tween-80
[5] = dose: 180.0 mg/kg/injection, schedule: Q01DX005 (ip), vehicle: saline with Tween-80

Measured: T/C

CCC1CC2CN(CCc3c([nH]c4ccccc34)C(C(=O)OC)(c3cc4c(cc3OC)N(C)C3C(O)(C(=O)OC)C(OC(C)=O)C5(CC)C=CCN6CCC43C65)C2)C1 (stereo unspecified)
inactive: dose: 0.05 mg/kg/injection, schedule: Q01DX005 (ip), vehicle: Klucel (hydroxypropylcellulose) (HPC) 102 % of control | dose: 0.1 mg/kg/injection, schedule: Q01DX005 (ip), vehicle: Klucel (hydroxypropylcellulose) (HPC) 108 % of control | dose: 0.2 mg/kg/injection, schedule: Q01DX005 (ip), vehicle: Klucel (hydroxypropylcellulose) (HPC) 108 % of control | dose: 0.4 mg/kg/injection, schedule: Q01DX005 (ip), vehicle: Klucel (hydroxypropylcellulose) (HPC) 108 % of control | dose: 0.8 mg/kg/injection, schedule: Q01DX005 (ip), vehicle: Klucel (hydroxypropylcellulose) (HPC) 108 % of control | dose: 1.6 mg/kg/injection, schedule: Q01DX005 (ip), vehicle: Klucel (hydroxypropylcellulose) (HPC) 102 % of control

O=S(=O)(O)O
inactive: dose: 16.0 mg/kg/injection, schedule: Q01DX005 (ip), vehicle: saline with Tween-80 90 % of control | [1] 94 % of control | [2] 112 % of control

O=P1(NCCCl)OCCCN1CCCl (stereo unspecified)
inactive: dose: 6.25 mg/kg/injection, schedule: Q01DX005 (ip), vehicle: saline 122 % of control | dose: 12.5 mg/kg/injection, schedule: Q01DX005 (ip), vehicle: saline 110 % of control | dose: 25.0 mg/kg/injection, schedule: Q01DX005 (ip), vehicle: saline 114 % of control | dose: 25.0 mg/kg/injection, schedule: Q01DX005 (ip), vehicle: water 92 % of control and 117 % of control | dose: 50.0 mg/kg/injection, schedule: Q01DX001 (ip), vehicle: water 96 % of control | dose: 50.0 mg/kg/injection, schedule: Q01DX005 (ip), vehicle: water 90 % of control | dose: 100.0 mg/kg/injection, schedule: Q01DX001 (ip), vehicle: water 106 % of control | dose: 100.0 mg/kg/injection, schedule: Q01DX005 (ip), vehicle: water 106 % of control and 123 % of control | dose: 200.0 mg/kg/injection, schedule: Q01DX001 (ip), vehicle: water 119 % of control | dose: 200.0 mg/kg/injection, schedule: Q01DX005 (ip), vehicle: water 116 % of control

NC(C/[N+]([O-])=N/O)C(=O)O (stereo unspecified)
inactive: dose: 7.0 mg/kg/injection, schedule: Q01DX005 (ip), vehicle: saline 119 % of control | dose: 14.0 mg/kg/injection, schedule: Q01DX005 (ip), vehicle: saline 119 % of control | dose: 56.0 mg/kg/injection, schedule: Q01DX005 (ip), vehicle: saline 95 % of control

C[CH2][Ge]1([CH2]C)[CH2]CC2(CCN(CCCN(C)C)C2)C[CH2]1
inactive: dose: 4.0 mg/kg/injection, schedule: Q01DX005 (ip), vehicle: saline 104 % of control | dose: 8.0 mg/kg/injection, schedule: Q01DX005 (ip), vehicle: saline 98 % of control and 101 % of control and 108 % of control

O=C(N/N=C\c1cc(Br)cc(Br)c1O)N/N=C/c1cc(Br)cc(Br)c1O
inactive: [1] 88 % of control | [2] 97 % of control | dose: 128.0 mg/kg/injection, schedule: Q01DX005 (ip), vehicle: saline with Tween-80 88 % of control | dose: 256.0 mg/kg/injection, schedule: Q01DX005 (ip), vehicle: saline with Tween-80 93 % of control

CCOC(=O)CC(SP(=S)(OC)OC)C(=O)OCC (stereo unspecified)
inactive: dose: 24.0 mg/kg/injection, schedule: Q01DX005 (ip), vehicle: saline with Tween-80 101 % of control and 104 % of control | [3] 101 % of control and 108 % of control | dose: 50.0 mg/kg/injection, schedule: Q01DX005 (ip), vehicle: suspension in saline 102 % of control | [4] 95 % of control and 116 % of control | dose: 100.0 mg/kg/injection, schedule: Q01DX005 (ip), vehicle: suspension in saline 103 % of control | [5] 104 % of control | dose: 200.0 mg/kg/injection, schedule: Q01DX005 (ip), vehicle: suspension in saline 99 % of control

c1ccc([C@H]2CN3CCSC3=N2)cc1
inactive: dose: 5.0 mg/kg/injection, schedule: Q01DX005 (ip), vehicle: saline 103 % of control | dose: 5.0 mg/kg/injection, schedule: Q01DX009 (ip), vehicle: saline 99 % of control | dose: 10.0 mg/kg/injection, schedule: Q01DX005 (ip), vehicle: saline 96 % of control | dose: 10.0 mg/kg/injection, schedule: Q01DX009 (ip), vehicle: saline 113 % of control | dose: 20.0 mg/kg/injection, schedule: Q01DX005 (ip), vehicle: saline 101 % of control | dose: 20.0 mg/kg/injection, schedule: Q01DX009 (ip), vehicle: saline 107 % of control | dose: 40.0 mg/kg/injection, schedule: Q01DX005 (ip), vehicle: saline 101 % of control

ClC1C(Cl)C(Cl)C(Cl)C(Cl)C1Cl (stereo unspecified)
inactive: [3] 96 % of control and 87 % of control | [4] 94 % of control and 98 % of control | [5] 107 % of control | dose: 360.0 mg/kg/injection, schedule: Q01DX005 (ip), vehicle: saline with Tween-80 96 % of control and 103 % of control
